Measurements taken from patent US20250152675A1, “I-TYPE RECOMBINANT COLLAGEN WITH HIGH TRANSDERMAL ABSORBABILITY, AND USE THEREOF” (XI'AN GIANT BIOGENE TECHNOLOLGY CO., LTD, priority 2022, published 2025).
Residues, ends and D or L forms follow the SMILES beside them.

Test: Transdermal penetration through ex vivo mouse skin in a single-chamber diffusion cell, content by BCA kit
Assay type: in vitro ADME, Kunming mice
Conditions: collagen peptide 5 mg/ml in 0.9% NaCl, diffusion area 2.0 cm^2, 37.5° C.
Description: 1. Preparation of Mouse Skin Ex Vivo 10 Kunming mice of 20 to 22 g with half male and half […] were used in the experiment. After the mice were killed, the hairs on the abdomen were removed. Then the skin on the hair-removed area was peeled off, stripped of fat and tendons, and rinsed repeatedly with distilled water. After being washed, the mouse skins were rinsed with normal saline, then treated with 10% glycerol, and stored at −20° C. for use (use up within 7 days).
Single-chamber diffusion cell: The effective diffusion area of the diffusion cell is 2.0 cm^2, the volume of the receiving cell is 14 ml, the length of the custom-made stirrer is 1.4 cm, and the receiving solution is 0.9% NaCl solution.
The stored mouse skin was taken out, thawed, washed with normal saline, and sandwiched between the receiving chamber and the supplying chamber, with the medicated side facing the supplying chamber and the skin side facing the receiving chamber. The temperature of the water bath system was adjusted to 37.5° C., and the stirring speed was adjusted to 100 rpm/min. 0.9% NaCl solution pre-warmed at 37° C. was added to the receiving chamber and the air bubbles were exhausted, in order to reduce the interference, the inner surface of the mouse skin was firstly contacted with the receiving solution without medication and all the receiving solution was replaced. Then the 27 collagen peptides synthesized were prepared into 5 mg/ml solutions using 0.9% NaCl respectively, which were injected into the supplying chamber and firmly adhere to the mouse skin respectively. After 24 h, part of the receiving solution was absorbed with a syringe as the sample solution to determine the transdermal amount of collagen peptide.
The BCA kit method was used to determine the polypeptide content in the sample solution. […]

24h penetration amount [µg] | SMILES
2432.23 | CC[C@H](C)[C@H](NC(=O)CNC(=O)[C@H](CCC(N)=O)NC(=O)[C@@H]1CCCN1C(=O)CNC(=O)[C@@H]1CCCN1C(=O)[C@@H](NC(=O)CNC(=O)[C@@H]1CCCN1C(=O)[C@H](C)NC(=O)CNC(=O)[C@H](C)NC(=O)[C@@H]1CCCN1C(=O)CNC(=O)[C@H](CC(=O)O)NC(=O)[C@H](C)NC(=O)CNC(=O)[C@@H]1CCCN1C(=O)[C@H](CO)NC(=O)CN)[C@@H](C)O)C(=O)N[C@@H](C)C(=O)NCC(=O)N[C@@H](CCC(N)=O)C(=O)N[C@@H](CCCNC(=N)N)C(=O)NCC(=O)N[C@H](C(=O)N[C@H](C(=O)NCC(=O)N[C@@H](CC(C)C)C(=O)N1CCC[C@H]1C(=O)NCC(=O)N[C@@H](CCC(N)=O)C(=O)N[C@@H](CCCNC(=N)N)C(=O)NCC(=O)N[C@@H](CCC(=O)O)C(=O)N[C@@H](CCCNC(=N)N)C(=O)O)C(C)C)C(C)C [compound 19] (H-GSPGADGPAGAPGTPGPQGIAGQRGVVGLPGQRGER-OH; N-terminus and C-terminus assumed)
2509.11 | CC[C@H](C)[C@H](NC(=O)CN)C(=O)N[C@@H](C)C(=O)NCC(=O)N[C@@H](CCC(N)=O)C(=O)N[C@@H](CCCNC(=N)N)C(=O)NCC(=O)N[C@H](C(=O)N[C@H](C(=O)NCC(=O)N[C@@H](CC(C)C)C(=O)N1CCC[C@H]1C(=O)NCC(=O)N[C@@H](CCC(N)=O)C(=O)N[C@@H](CCCNC(=N)N)C(=O)NCC(=O)N[C@@H](CCC(=O)O)C(=O)N[C@@H](CCCNC(=N)N)C(=O)NCC(=O)N[C@@H](Cc1ccccc1)C(=O)N1CCC[C@H]1C(=O)NCC(=O)N[C@@H](CC(C)C)C(=O)N1CCC[C@H]1C(=O)NCC(=O)N1CCC[C@H]1C(=O)N[C@@H](CO)C(=O)NCC(=O)N[C@@H](CCC(=O)O)C(=O)N1CCC[C@H]1C(=O)NCC(=O)N[C@@H](CCCCN)C(=O)N[C@@H](CCC(N)=O)C(=O)NCC(=O)N1CCC[C@H]1C(=O)N[C@@H](CO)C(=O)O)C(C)C)C(C)C [compound 20] (H-GIAGQRGVVGLPGQRGERGFPGLPGPSGEPGKQGPS-OH; N-terminus and C-terminus assumed)
2199.78 | CSCC[C@H](NC(=O)[C@@H]1CCCN1C(=O)CNC(=O)[C@@H]1CCCN1C(=O)[C@@H]1CCCN1C(=O)CNC(=O)[C@H](CCCNC(=N)N)NC(=O)[C@H](CCC(=O)O)NC(=O)CNC(=O)[C@H](CO)NC(=O)[C@H](C)NC(=O)CNC(=O)[C@H](CO)NC(=O)[C@@H]1CCCN1C(=O)CNC(=O)[C@H](CCC(N)=O)NC(=O)[C@H](CCCCN)NC(=O)CNC(=O)[C@@H]1CCCN1C(=O)[C@H](CCC(=O)O)NC(=O)CNC(=O)[C@H](CO)NC(=O)[C@@H]1CCCN1C(=O)CNC(=O)[C@@H]1CCCN1C(=O)[C@H](CC(C)C)NC(=O)CNC(=O)[C@@H]1CCCN1C(=O)[C@H](Cc1ccccc1)NC(=O)CNC(=O)[C@H](CCCNC(=N)N)NC(=O)[C@H](CCC(=O)O)NC(=O)CN)C(=O)NCC(=O)N1CCC[C@H]1C(=O)N1CCC[C@H]1C(=O)O [compound 21] (H-GERGFPGLPGPSGEPGKQGPSGASGERGPPGPMGPP-OH; N-terminus and C-terminus assumed)
2092.23 | CC(C)C[C@H](NC(=O)CNC(=O)[C@@H](NC(=O)[C@@H](NC(=O)CN)C(C)C)C(C)C)C(=O)N1CCC[C@H]1C(=O)NCC(=O)N[C@@H](CCC(N)=O)C(=O)N[C@@H](CCCNC(=N)N)C(=O)NCC(=O)N[C@@H](CCC(=O)O)C(=O)N[C@@H](CCCNC(=N)N)C(=O)NCC(=O)N[C@@H](Cc1ccccc1)C(=O)N1CCC[C@H]1C(=O)NCC(=O)N[C@@H](CC(C)C)C(=O)N1CCC[C@H]1C(=O)NCC(=O)N1CCC[C@H]1C(=O)N[C@@H](CO)C(=O)NCC(=O)N[C@@H](CCC(=O)O)C(=O)N1CCC[C@H]1C(=O)NCC(=O)N[C@@H](CCCCN)C(=O)N[C@@H](CCC(N)=O)C(=O)NCC(=O)N1CCC[C@H]1C(=O)N[C@@H](CO)C(=O)NCC(=O)N[C@@H](C)C(=O)N[C@@H](CO)C(=O)NCC(=O)N[C@@H](CCC(=O)O)C(=O)N[C@@H](CCCNC(=N)N)C(=O)O [compound 22] (H-GVVGLPGQRGERGFPGLPGPSGEPGKQGPSGASGER-OH; N-terminus and C-terminus assumed)
2323.45 | CSCC[C@H](NC(=O)[C@@H]1CCCN1C(=O)CNC(=O)[C@@H]1CCCN1C(=O)[C@@H]1CCCN1C(=O)CNC(=O)[C@H](CCCNC(=N)N)NC(=O)[C@H](CCC(=O)O)NC(=O)CNC(=O)[C@H](CO)NC(=O)[C@H](C)NC(=O)CNC(=O)[C@H](CO)NC(=O)[C@@H]1CCCN1C(=O)CNC(=O)[C@H](CCC(N)=O)NC(=O)[C@H](CCCCN)NC(=O)CNC(=O)[C@@H]1CCCN1C(=O)[C@H](CCC(=O)O)NC(=O)CN)C(=O)NCC(=O)N1CCC[C@H]1C(=O)N1CCC[C@H]1C(=O)NCC(=O)N[C@@H](CC(C)C)C(=O)N[C@@H](C)C(=O)NCC(=O)N1CCC[C@H]1C(=O)N1CCC[C@H]1C(=O)NCC(=O)N[C@@H](CCC(=O)O)C(=O)N[C@@H](CO)C(=O)NCC(=O)N[C@@H](CCCNC(=N)N)C(=O)N[C@@H](CCC(=O)O)C(=O)O [compound 23] (H-GEPGKQGPSGASGERGPPGPMGPPGLAGPPGESGRE-OH; N-terminus and C-terminus assumed)
2234.67 | CSCC[C@H](NC(=O)[C@@H]1CCCN1C(=O)CNC(=O)[C@@H]1CCCN1C(=O)[C@@H]1CCCN1C(=O)CNC(=O)[C@H](CCCNC(=N)N)NC(=O)[C@H](CCC(=O)O)NC(=O)CN)C(=O)NCC(=O)N1CCC[C@H]1C(=O)N1CCC[C@H]1C(=O)NCC(=O)N[C@@H](CC(C)C)C(=O)N[C@@H](C)C(=O)NCC(=O)N1CCC[C@H]1C(=O)N1CCC[C@H]1C(=O)NCC(=O)N[C@@H](CCC(=O)O)C(=O)N[C@@H](CO)C(=O)NCC(=O)N[C@@H](CCCNC(=N)N)C(=O)N[C@@H](CCC(=O)O)C(=O)NCC(=O)N[C@@H](C)C(=O)N1CCC[C@H]1C(=O)NCC(=O)N[C@@H](C)C(=O)N[C@@H](CCC(=O)O)C(=O)NCC(=O)N[C@@H](CO)C(=O)N1CCC[C@H]1C(=O)NCC(=O)N[C@@H](CCCNC(=N)N)C(=O)N[C@@H](CC(=O)O)C(=O)O [compound 24] (H-GERGPPGPMGPPGLAGPPGESGREGAPGAEGSPGRD-OH; N-terminus and C-terminus assumed)
2255.78 | CC(C)C[C@H](NC(=O)[C@H](CC(=O)O)NC(=O)CNC(=O)[C@@H]1CCCN1C(=O)[C@@H](NC(=O)CNC(=O)[C@H](CCC(N)=O)NC(=O)[C@H](CCC(=O)O)NC(=O)CNC(=O)[C@@H]1CCCN1C(=O)[C@H](CCCCN)NC(=O)CNC(=O)[C@H](C)NC(=O)[C@H](CCC(=O)O)NC(=O)CNC(=O)[C@@H]1CCCN1C(=O)[C@@H]1CCCN1C(=O)CN)C(C)C)C(=O)NCC(=O)N[C@@H](C)C(=O)N1CCC[C@H]1C(=O)NCC(=O)N1CCC[C@H]1C(=O)N[C@@H](CO)C(=O)NCC(=O)N[C@@H](C)C(=O)N[C@@H](CCCNC(=N)N)C(=O)NCC(=O)N[C@@H](CCC(=O)O)C(=O)N[C@@H](CCCNC(=N)N)C(=O)NCC(=O)N[C@@H](Cc1ccccc1)C(=O)N1CCC[C@H]1C(=O)NCC(=O)N[C@@H](CCC(=O)O)C(=O)N[C@@H](CCCNC(=N)N)C(=O)O [compound 25] (H-GPPGEAGKPGEQGVPGDLGAPGPSGARGERGFPGER-OH; N-terminus and C-terminus assumed)
2054.99 | CC(C)[C@H](NC(=O)CNC(=O)[C@H](CCCNC(=N)N)NC(=O)[C@H](CCC(=O)O)NC(=O)CNC(=O)[C@@H]1CCCN1C(=O)[C@H](Cc1ccccc1)NC(=O)CNC(=O)[C@H](CCCNC(=N)N)NC(=O)[C@H](CCC(=O)O)NC(=O)CNC(=O)[C@H](CCCNC(=N)N)NC(=O)[C@H](C)NC(=O)CNC(=O)[C@H](CO)NC(=O)[C@@H]1CCCN1C(=O)CNC(=O)[C@@H]1CCCN1C(=O)[C@H](C)NC(=O)CN)C(=O)N[C@@H](CCC(N)=O)C(=O)NCC(=O)N1CCC[C@H]1C(=O)N1CCC[C@H]1C(=O)NCC(=O)N1CCC[C@H]1C(=O)N[C@@H](C)C(=O)NCC(=O)N1CCC[C@H]1C(=O)N[C@@H](CCCNC(=N)N)C(=O)NCC(=O)N[C@@H](C)C(=O)N[C@@H](CC(N)=O)C(=O)NCC(=O)N[C@@H](C)C(=O)N1CCC[C@H]1C(=O)O [compound 26] (H-GAPGPSGARGERGFPGERGVQGPPGPAGPRGANGAP-OH; N-terminus and C-terminus assumed)
2186.24 | CC(C)[C@H](NC(=O)CNC(=O)[C@H](CCCNC(=N)N)NC(=O)[C@H](CCC(=O)O)NC(=O)CN)C(=O)N[C@@H](CCC(N)=O)C(=O)NCC(=O)N1CCC[C@H]1C(=O)N1CCC[C@H]1C(=O)NCC(=O)N1CCC[C@H]1C(=O)N[C@@H](C)C(=O)NCC(=O)N1CCC[C@H]1C(=O)N[C@@H](CCCNC(=N)N)C(=O)NCC(=O)N[C@@H](C)C(=O)N[C@@H](CC(N)=O)C(=O)NCC(=O)N[C@@H](C)C(=O)N1CCC[C@H]1C(=O)NCC(=O)N[C@@H](CC(N)=O)C(=O)N[C@@H](CC(=O)O)C(=O)NCC(=O)N[C@@H](C)C(=O)N[C@@H](CCCCN)C(=O)NCC(=O)N[C@@H](CC(=O)O)C(=O)N[C@@H](C)C(=O)NCC(=O)N[C@@H](C)C(=O)N1CCC[C@H]1C(=O)NCC(=O)N[C@@H](C)C(=O)N1CCC[C@H]1C(=O)O [compound 27] (H-GERGVQGPPGPAGPRGANGAPGNDGAKGDAGAPGAP-OH; N-terminus and C-terminus assumed)
